Test results as given in US11407728B2, “Derivatives of EPA endocannabinoid epoxides as anti-inflammatory, anti-cancerous, anti-angiogenc and antiplatelet aggregation compounds” (The Board of Trustees of the University of Illinois, priority 2017, dated 2022).

Columns and labels:
[1] = test system: mouse BV-2 microglial cells; assay: Anti-inflammatory assay in BV-2 microglial cells, IL-6 secretion (ELISA) after LPS stimulation; type: cell-based; conditions: BV-2 cells pre-incubated 4 hours with varying concentrations, 25 ng/mL LPS, media collected at 24 hours
Protocol: FIG. 3A, FIG. 3B, FIG. 3C and FIG. 3D show the dose-dependent NO and Il-6 studies for 17,18-EEQ-EA and 8,9-EEQ-EA. BV-2 microglial cells were pre-incubated with varying concentrations of 17,18-EEQ-EA or 8,9-EEQ-EA for 4 hours followed by LPS (25 ng/mL) stimulation. Culture medium was collected after 24 hours and analyzed for NO (A, C) and IL-6 (B, D) production. Significant P values are indicated as *** (P≤0.001), ** (P≤0.01), and * (P≤0.05). Values are expressed as mean±SEM and +/− indicates LPS added or LPS not added. * represents P<0.05, ** represents P<0.01, *** represents P<0.001, **** represents P<0.0001 relative to LPS.
Experiments were performed with mouse BV-2 microglial cells. Cells were grown and maintained in Dulbecco's modified Eagle's medium supplemented with 10% fetal bovine serum, 1% streptomycin and penicillin at 37° C. in a 5% CO2 humidified air atmosphere. BV-2 cells were seeded in 24-well plates (200K cells/mL) and grown to 80-90% confluency. […] To determine nitrite and IL-6 production, media was collected at 24 hours and the production of nitric oxide (NO) was determined by using the Greiss method and IL-6 secretion was measured using ELISA (no. 583371; Cayman Chemical).

recombinant sEH = biological target: T1, recombinant sEH (Homo sapiens, UniProt P34913); assay: Soluble epoxide hydrolase (sEH) hydrolysis kinetics; type: in vitro ADME; conditions: 8,9-EEQ-EA versus 17,18 EEQ-EA
T1 sequence (P34913 1-555): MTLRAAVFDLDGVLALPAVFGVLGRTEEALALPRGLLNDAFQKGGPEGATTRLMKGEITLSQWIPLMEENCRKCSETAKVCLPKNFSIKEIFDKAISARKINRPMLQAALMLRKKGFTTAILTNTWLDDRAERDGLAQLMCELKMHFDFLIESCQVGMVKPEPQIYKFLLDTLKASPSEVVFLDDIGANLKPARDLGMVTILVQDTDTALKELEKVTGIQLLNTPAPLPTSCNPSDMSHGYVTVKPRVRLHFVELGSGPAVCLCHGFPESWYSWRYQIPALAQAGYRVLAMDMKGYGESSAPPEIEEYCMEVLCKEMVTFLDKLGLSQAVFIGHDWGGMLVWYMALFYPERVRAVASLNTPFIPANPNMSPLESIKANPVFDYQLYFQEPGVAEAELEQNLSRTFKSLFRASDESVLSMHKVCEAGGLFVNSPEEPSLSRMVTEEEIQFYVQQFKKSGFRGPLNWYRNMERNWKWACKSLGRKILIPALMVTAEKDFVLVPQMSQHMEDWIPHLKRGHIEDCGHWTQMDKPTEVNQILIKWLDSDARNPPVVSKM
Protocol: (§1) FIG. 4A, FIG. 4B, FIG. 4C and FIG. 4D show FAAH (FIG. 4B and FIG. 4D) and sEH (FIG. 4A and FIG. 4C) hydrolysis of 17,18-EEQ-EA and 8,9-EEQ-EA, respectively. To determine the rate of hydrolysis by sEH, increasing substrate (8,9-EEQ-EA) concentrations were incubated at 37° C. with sEH ([E]final=6 nM). For Vmax and Km values, plots were fitted to the Michaelis-Menten equation using Origin Pro. For FAAH hydrolysis, membranes from rat forebrain tissue were isolated for time-based hydrolysis. Incubations were performed with 100 μg of forebrain protein and 50 μM of substrate for 5, 20 and 40 minutes at 37° C. Both reactions were measured for product conversion using LC-MS/MS.
For soluble epoxide hydrolase (sEH) kinetics, increasing concentrations of substrates (8,9-EEQ-EA (FIG. 4C) and 17,18-EEQ-EA (FIG. 4A)) were incubated with recombinant sEH (final [6 nM]) in a 0.1 mL reaction containing NaPO4 (0.1 M, pH 7.4), bovine serum albumin (0.1 mg/ml) at 37° C. The enzymatic reaction was stopped after 5 min with equal volume of methanol with AUDA (0.5 μM) and centrifuged at 10,000 g for 10 min. The supernatant was saved and quantitated using LC-MS/MS. Data was fit to kinetic curves and the Michaelis-Menten equation was used to calculate Vmax and Km.

[2] = biological target: T2, fatty acid amide hydrolase (FAAH) (Rattus norvegicus, UniProt P97612); assay: Fatty acid amide hydrolase (FAAH) hydrolysis in rat forebrain membranes; type: in vitro ADME; conditions: 50 μM substrate, 100 μg rat forebrain membrane, 5, 20 and 40 minutes, 37° C.
T2 construct: incubated with 100 μg forebrain membrane; from tissue; host or cells: rat forebrain membranes
T2 sequence (P97612 1-579): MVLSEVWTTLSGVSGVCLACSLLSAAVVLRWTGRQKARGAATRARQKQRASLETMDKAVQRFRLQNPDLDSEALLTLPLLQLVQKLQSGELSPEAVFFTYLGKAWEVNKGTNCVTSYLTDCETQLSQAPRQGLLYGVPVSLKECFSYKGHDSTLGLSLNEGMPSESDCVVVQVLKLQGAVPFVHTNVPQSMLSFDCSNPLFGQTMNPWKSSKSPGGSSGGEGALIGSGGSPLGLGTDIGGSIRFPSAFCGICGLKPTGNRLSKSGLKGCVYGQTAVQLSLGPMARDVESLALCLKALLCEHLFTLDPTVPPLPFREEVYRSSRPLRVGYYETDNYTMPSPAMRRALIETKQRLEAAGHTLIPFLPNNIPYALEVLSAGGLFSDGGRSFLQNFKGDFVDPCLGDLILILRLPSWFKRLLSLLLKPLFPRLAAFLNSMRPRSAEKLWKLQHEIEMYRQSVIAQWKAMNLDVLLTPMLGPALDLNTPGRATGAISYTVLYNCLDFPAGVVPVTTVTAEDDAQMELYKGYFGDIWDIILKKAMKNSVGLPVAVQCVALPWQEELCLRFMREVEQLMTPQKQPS
Protocol: as §1
For fatty acid amide hydrolase (FAAH) kinetics (FIG. 4B and FIG. 4D), rat forebrain membranes were homogenized in buffer (50 mM Tris pH 7.4, 1 mM EDTA and 3 mM MgCl2) and membrane pellet was collected as previously described. 8,9-EEQ-EA or 13,14-EDP-EA (50 μM) was incubated with 100 μg forebrain membrane containing 50 mM Tris (pH 7.4), 1 mM EDTA, 3 mM MgCl2 in a 0.5 mL reaction. Linearity of the reactions was confirmed at 5, 20 and 40 minutes. Reactions were stopped with methanol containing 1 mM PMSF and centrifuged at 10,000 g for 10 min to collect supernatant via LC-MS/MS.

[3] = biological target: T3, CNR1 (cannabinoid receptor 1) (Homo sapiens, UniProt P21554); assay: Presto-Tango β-arrestin recruitment assay, CNR1; type: cell-based; conditions: CNR1-transfected HTLA cells, luminescence, 1 μM AUDA; read-out: EC50 CNR1 activation
T3 construct: Tango fusion module; by own knowledge of the PRESTO-Tango design: V2 tail, TEV cleavage site, tTA; (C); own knowledge of the PRESTO-Tango design; (N); host or cells: HTLA cells
Source text: (§2) FIG. 5A and FIG. 5B show dose-response curves for cannabinoid receptor 1 (CNR1) and cannabinoid receptor 2 (CNR2), respectively. The dose response curves were generated by monitoring the relative luminescence of cannabinoid receptor 1 (CNR1) and cannabinoid receptor 2 (CNR2) of PRESTO-Tango gene-transfected HTLA cells for 17,18-EEQ-EA, EPEA, and CP 55940. Values shown are the mean±SEM of experiments performed multiple times (n=3-7) *P<0.05, **P<0.01, and ***P<0.001.
(§3) Binding of the parent compounds to putative receptors CNR1 and CNR2 (cannabinoid receptors 1 & 2) was measured by a Presto-Tango assay (FIG. 5A and FIG. 5B, respectively). These receptors are responsible for many downstream effects of marijuana derivatives as well as other endocannabinoids that have been previously reported in literature and this study explores if our compounds bind to these receptors. HTLA cells were received from the Roth Lab and CNR1 and CNR2 plasmids were purchased from Addgene. […] The following day, media was removed and 40 μL of diluted Bright-Glo solution (Promega, Madison. Wis.) was added to each well and incubated in the dark for 20 min at room temperature before luminescence recordings. Relative luminescence units (RLU) values were normalized to % receptor response, plotted as a function of compound concentration and analyzed using “DoseResp” in OriginPro.

[4] = biological target: T4, CNR2 (cannabinoid receptor 2) (Homo sapiens, UniProt P34972); assay: Presto-Tango β-arrestin recruitment assay, CNR2; type: cell-based; conditions: CNR2-transfected HTLA cells, luminescence, 1 μM AUDA; read-out: EC50 CNR2 activation
T4 construct: Tango fusion module; by own knowledge of the PRESTO-Tango design: V2 tail, TEV cleavage site, tTA; (C); own knowledge of the PRESTO-Tango design; (N); host or cells: HTLA cells
Source text: as §2, §3

T3 sequence (P21554 whole entry, the tested form may be a part): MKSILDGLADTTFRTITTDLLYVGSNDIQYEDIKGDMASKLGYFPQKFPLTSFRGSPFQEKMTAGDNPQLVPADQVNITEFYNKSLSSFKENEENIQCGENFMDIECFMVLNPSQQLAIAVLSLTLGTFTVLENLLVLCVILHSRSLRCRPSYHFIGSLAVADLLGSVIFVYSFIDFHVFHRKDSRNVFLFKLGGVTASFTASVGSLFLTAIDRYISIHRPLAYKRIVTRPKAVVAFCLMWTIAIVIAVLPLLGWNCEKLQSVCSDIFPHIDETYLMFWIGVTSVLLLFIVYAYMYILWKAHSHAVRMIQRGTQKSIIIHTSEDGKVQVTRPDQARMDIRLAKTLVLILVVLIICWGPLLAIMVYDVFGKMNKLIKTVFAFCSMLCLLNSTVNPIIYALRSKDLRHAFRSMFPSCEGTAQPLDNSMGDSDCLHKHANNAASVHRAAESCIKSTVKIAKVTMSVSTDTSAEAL
T4 sequence (P34972 whole entry, the tested form may be a part): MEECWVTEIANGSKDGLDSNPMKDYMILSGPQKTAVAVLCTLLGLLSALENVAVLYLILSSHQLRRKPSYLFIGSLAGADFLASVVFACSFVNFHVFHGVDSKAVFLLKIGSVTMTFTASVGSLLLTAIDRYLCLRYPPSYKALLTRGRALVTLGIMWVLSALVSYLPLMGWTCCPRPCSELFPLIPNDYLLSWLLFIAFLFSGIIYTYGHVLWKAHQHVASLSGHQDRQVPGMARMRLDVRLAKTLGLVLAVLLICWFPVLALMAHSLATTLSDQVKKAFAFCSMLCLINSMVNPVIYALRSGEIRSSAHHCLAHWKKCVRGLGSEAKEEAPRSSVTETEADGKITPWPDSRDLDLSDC

SMILES | IL-6 secretion [1] | sEH turnover rate relative to 17,18 EEQ-EA (times) (recombinant sEH) | rate of FAAH hydrolysis to the corresponding EEQ [2] | EC50 [3] | EC50 [4]
CC/C=C\C/C=C\C/C=C\CC1OC1C/C=C\CCCC(=O)NCCO (stereo not drawn) [8,9-EEQ-EA] | reduced IL-6 in a dose-dependent manner | 4 times | comparable to the rate of 17, 18-EEQ-EA to 17,18-EEQ | – | –
CCC1OC1C/C=C\C/C=C\C/C=C\C/C=C\CCCC(=O)NCCO (stereo not drawn) [17,18-EEQ-EA] | reduced IL-6 in a dose-dependent manner | – | – | 18.5 nM | 1.4 nM
